Results as given in patent US4925865A, “Antimycotic agents” (Bayer Aktiengesellschaft, priority 1987, dated 1990).
≈ marks a conversion by molar mass, not a printed value.

Assays:
mycoses = settings: compare EP-OS No.0,180,850; cited from earlier work
Aspergillus fumigatus = test: Antimycotic in vitro activity, serial dilution test, Aspergillus fumigatus; format: cell-based; settings: 28-37° C.
Protocol: (§1) The in vitro tests were carried out in the serial dilution test using inocula of microorganisms of approximately 5×10^3 to 10^4 microorganisms/ml of substrate. The nutrient medium used was (a) for dermatophytes and Blastomycetes: Sabouraud's test medium (b) for yeasts: meat extract/dextrose broth. The incubation temperature was 28° C. to 37° C., and the incubation period was 24 to 96 hours with yeasts and 96 hours with dermatophytes and Blastomycetes.

Torulopsis glabrata = test: Antimycotic in vitro activity, serial dilution test, Torulopsis glabrata; format: cell-based; settings: Nakaseomyces glabratus; 28-37° C., 24 to 96 hours
Protocol: as §1

Trichophyton mentagr. = test: Antimycotic in vitro activity, serial dilution test, Trichophyton mentagr.; format: cell-based, Trichophyton mentagrophytes; settings: Sabouraud's test medium, 28-37° C., 96 hours
Protocol: as §1

Candida albicans = test: Antimycotic in vitro activity, serial dilution test, Candida albicans; format: cell-based; settings: meat extract/dextrose broth, 28-37° C., 24 to 96 hours
Protocol: as §1

Question: With `OC(Cn1cncn1)(c1ccc(Cl)cc1)C1(Oc2ccc(Cl)cc2Cl)CC1` (centres unmarked) [(B), 1-(4-chlorophenyl)-1-[1-(2,4-dichlorophenoxy)-cycloprop-1-yl]-2-(1,2,4-triazol-1-yl)-ethan-1-ol, reference compound] as the compound, how does the antimycotic properties (mycoses) read?
Answer: exhibit antimycotic properties

Question: And the MIC (Aspergillus fumigatus)?
Answer: > 64 µg/mL

Question: What about the MIC (Torulopsis glabrata) of the same compound?
Answer: 64 µg/mL (≈ 151 µM)

Question: And the MIC (Trichophyton mentagr.)?
Answer: 64 µg/mL (≈ 151 µM)

Question: What about the MIC (Candida albicans) of the same compound?
Answer: 16 µg/mL (≈ 37.7 µM)
